SMILES strings stand for the structures.

What all share (type): cell-based
Assay [1] concerns Pseudomonas aeruginosa PAO1. The assay can be described thus: MBEC assay, biofilm formation of P. aeruginosa PAO1. Particulars: for IC50: biofilm formation, read-out: P. aeruginosa PAO1 inhibitory concentration IC50; for inhibition at 100 µM: compound concentration 100 μM. The method in brief: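 Peg-lid biofilms were grown 24 h at 35±2 °C, 110 rpm, from inoculum diluted to ~6.0×10^5 cells per mL in TSB, with compound at 10 μM or 100 μM final (1% DMSO) in 1% Tween 80/CAMHB. Pegs were rinsed, then sonicated 30 min into recovery medium; survivors were spot-plated, and recovery plates were read visually after 24 h; triplicates.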

Assay [2] deals with Staphylococcus epidermidis RP62A. The assay can be described thus: MBEC assay, biofilm formation of S. epidermidis RP62A. Particulars: read-out: S. epidermidis RP62A log R (log reduction); for log reduction at 10 µM: compound concentration 10 μM; for log reduction at 100 µM: compound concentration 100 μM. The protocol: (§1) The compound to be tested was dissolved in DMSO to obtain a concentration that was 100 times that of the final concentration required (1 mM for the 10 μM assay and 10 mM for the 100 μM assay). 1.5 μL of the above solution was placed into each well of a 96 well plate (final volume in each well=150 μL, final DMSO concentration of 1% (v/v)).
(§2) To grow the organism and form a biofilm, a cryogenic stock of the test organism (at −70° C.) was used. A first sub-culture was streaked out onto TSA (tryptic soy agar), upon which the plate was incubated at 35±2° C. for 24 hours and stored wrapped in parafilm at 4° C. afterwards. From this first sub-culture, a second sub-culture was streaked out onto TSA. The plate was incubated at 35±2° C. for 24 hours. The second sub-culture was used within 24 hours starting from the time it was first removed from incubation. Using the second sub-culture an inoculum in 3 mL sterile water that matches a 0.5 McFarland Standard (1.5×10^8 cells per mL) was created in a glass test tube using a sterile cotton swab. 2.2 mL of this solution was diluted in 22 mL 100% TSB (tryptic soy broth) medium to a cell density of approximately […]. The diluted organism was inverted 3-5 times to achieve uniform mixing of the organism. One sample (100 μl) of the diluted organism was used for an inoculum check by serially diluting and spot plating on TSA.
(§3) To prepare a challenge plate, […] of the diluted organism was added to each well of a 96 well plate except the sterility control wells. The test compounds were added to the wells to make up final concentrations of 10 μM and […] (1.5 μL/well) in the designated location in the test plate. 128.5 μL of 100% universal neutralizer (1% Tween 80 in Cation Adjusted Mueller Hinton Broth, CAMHB) was placed in each of the wells. 130 μL of media was added to the growth control wells. 128.5 μL of media+1.5 μL of DMSO were added to a second set of growth control wells. 150 μL of media was added to the sterility controls. Each sample was run in triplicate. The plate was covered by a lid with a peg per well and wrapped in parafilm and placed on a shaker in a humidified incubator (GeneVac) at 35±+2° C. for 24 hours set at 110 rpm.
(§4) Rinse plate(s) of 0.9% saline (200 μL per well) were prepared in a sterile 96 well microtitre plate. Lid-associated pegs were rinsed in 0.9% saline for approximately 1-2 minutes. The peg lid was transferred to the recovery media (1.0% Tween 80 in CAMHB) then sonicated for 30 minutes to dislodge surviving biofilm. Following sonication, 100 μL from each well of the 96 well plate was placed into the first 12 wells of the first row of a 96 well microtiter plate. 180 μl of 0.9% sterile saline was placed in the remaining rows. A serial dilution (10^0-10^7) was prepared by moving 20 μl down each of the 8 rows. 20 μl from each well was removed and spot plated on a prepared TSA. In the remaining recovery plate, 100 μl of fresh growth media (1.0% Tween 80 in CAMHB) was placed in each well to replace the amount removed. The recovery plate was covered with a regular lid and incubated at 35±2° C. for 24 hours and read visually to confirm antimicrobial activity of the test compounds.
(§5) The compounds of the present disclosure have been tested regarding their efficiency to inhibit biofilm formation of Staphylococcus aureus U of C#18 (MRSA), Staphylococcus aureus 456 (MRSA), Staphylococcus epidermidis RP62A, and Pseudomonas aeruginosa PAO1.

In assay [3] the test system is Staphylococcus aureus 456 (MRSA). Briefly: MBEC assay, biofilm formation of S. aureus 456 (MRSA). Particulars: read-out: S. aureus 456 (MRSA) log R (log reduction); for log reduction at 10 µM: compound concentration 10 μM; for log reduction at 100 µM: compound concentration 100 μM. The method, then: as §1, §2, §3, §4, §5
Assay [4] concerns Staphylococcus aureus U of C#18 (MRSA). The assay can be described thus: MBEC assay, biofilm formation of S. aureus U of C #18 (MRSA). Particulars: read-out: S. aureus U of C #18 (MRSA) log R (log reduction); for log reduction at 10 µM: compound concentration 10 μM; for log reduction at 100 µM: compound concentration 100 μM. The method, then:
as §1, §2, §3, §4, §5

As for `CCCCCCCCOCCC(=O)Nc1ccc(F)cc1C(F)(F)F` [Example 3, N-(4-fluoro-2-(trifluoromethyl)phenyl)-3-(octyloxy)propanamide], the IC50 in assay [1] was 19 µM. For the same molecule, the results for the log reduction at 10 µM in assay [2], in assay [3] and in assay [4] were 0, 0.19 and 0.11, respectively. In addition, the results for the log reduction at 100 µM in assay [2], in assay [3] and in assay [4] were 0, 0.49 and 0.19, respectively.
In the case of `CCCCCCCCCCCC(=O)Nc1cc(C(C)(C)C)nn1C` [Example 9, N-(3-tert-butyl-1-methylpyrazol-5-yl)dodecanamide], in assay [1], the IC50 stood at 12 µM. Also, the figures for the log reduction at 10 µM in assay [2], in assay [3] and in assay [4] were 0, 0.65 and 0.42, respectively. The log reduction at 100 µM in assay [2] stood at 0; in assay [3], 1.06; in assay [4], 0.46.
`CCCCCCCCCCCC(=O)N1CCCC(C(=O)N(CC)CC)C1` (stereo not drawn) [Example 2, 1-dodecanoyl-N,N-diethylpiperidine-3-carboxamide]: the IC50 in assay [1] amounted to 12 µM. Further, the log reduction at 10 µM in assay [2] turned out to be 0; in assay [3], 1.75; in assay [4], 1.56. Besides, the log reduction at 100 µM worked out at 3.5 in assay [2], 5.79 in assay [3] and 5.38 in assay [4].
The inhibition is the percentage by which the read-out fell short of the control. In turn, `CCCCCCCCCCCCC(=O)N1CCCC(C(=O)N(CC)CC)C1` (stereo not drawn) [Example 12, N,N-diethyl-1-tridecanoylpiperidine-3-carboxamide] displayed an inhibition at 100 µM in assay [1] of 85%. For the same molecule, in assay [2], the log reduction at 10 µM was 1.42 and the log reduction at 100 µM came to 2.47. In assay [4], the log reduction at 10 µM stood at 0.08 and the log reduction at 100 µM was determined as 1.57.
`CCCCCCCCOCCC(=O)N(C)c1ccc(F)cc1` [Example 5, N-(4-fluorophenyl)-N-methyl-3-(octyloxy)propanamide]: in assay [1], the IC50 came to 24 µM. The log reduction at 10 µM was 0 in assay [2], 0.54 in assay [3] and -0.21 in assay [4]. For the same molecule, the log reduction at 100 µM in assay [2] worked out at 0; in assay [3], 1.86; in assay [4] it was 1.29.
Regarding `CCCCCCCCCC(=O)NC(=O)Nc1ccnn1CC` [Example 4, N-(1-ethylpyrazol-5-ylcarbamoyl)decanamide], the IC50 in assay [1] stood at 11 µM. The log reduction at 10 µM came out at 0 in assay [2], 1.14 in assay [3] and 1.13 in assay [4]. For the same molecule, the log reduction at 100 µM was 0.78 in assay [2], 3.28 in assay [3] and 1.49 in assay [4].
`CCCCCCCCCCC(=O)N1CCCC(C(=O)N(CC)CC)C1` (stereo not drawn) [Example 11, N,N-diethyl-1-undecanoylpiperidine-3-carboxamide] displayed an inhibition at 100 µM in assay [1] of 75%. Moreover, in assay [2], the log reduction at 10 µM is 0.77 and the log reduction at 100 µM is 1.48. Further, in assay [4], the log reduction at 10 µM worked out at 0.84 and the log reduction at 100 µM is 0.88.
As to `CCCCCCCCCCNC(=O)N(C)c1ccccc1` [Example 6, 3-decyl-1-methyl-1-phenylurea], the IC50 in assay [1] amounted to 9 µM. In addition, the log reduction at 10 µM in assay [2] is 0; in assay [3], 1.61; in assay [4], 0.72. The log reduction at 100 µM in assay [2] amounted to 4.45; in assay [3], 2.3; in assay [4], 1.08.
As for `CCCCCCCCCOCC(=O)Nc1ccnn1C` [Example 1, N-(1-methylpyrazol-5-yl)-2-(nonyloxy)acetamide], the IC50 in assay [1] came out at 27 µM. The values for the log reduction at 10 µM in assay [2], in assay [3] and in assay [4] were 0, 0.26 and 0.4, respectively. Moreover, the log reduction at 100 µM is 0 in assay [2], 1.18 in assay [3] and 0.77 in assay [4].
`CCCCNC(=O)Nc1cc(C(C)(C)C)nn1C` [Example 40, 1-butyl-3-(3-tert-butyl-1-methylpyrazol-5-yl)urea] showed an inhibition at 100 µM in assay [1] (class symbols) below 20%.
The same measure, in the same setting: the value for `CCCCCCNC(=O)Nc1cc(C)nn1C` [Example 41, 1-(1,3-dimethylpyrazol-5-yl)-3-hexylurea] was below 20%; that for `CCCCCCCCCCNC(=O)Nc1ccc(F)cc1` [Example 53, 1-decyl-3-(4-fluorophenyl)urea] was below 20%.
The molecule `CCCCCCCCCCNC(=O)Nc1cc(C)nn1C(C)(C)C` [Example 70, 1-(1-tert-butyl-3-methylpyrazol-5-yl)-3-decylurea] displayed an inhibition at 100 µM in assay [1] (class symbols) above 50%.
`CCCCCCCCCCNC(=O)Nc1ccnn1CC` [Example 64, 1-decyl-3-(1-ethylpyrazol-5-yl)urea] returned an inhibition at 100 µM in assay [1] (class symbols) of 20 to 50%.
`CCCCCCCCCOCC(=O)Nc1nnc(-c2ccccc2)s1` [Example 110, 2-(nonyloxy)-N-(5-phenyl-1,3,4-thiadiazol-2-yl)acetamide] returned an inhibition at 100 µM in assay [1] (class symbols) below 20%.
Same read-out and setting: the value for `COCCOCCOCC(=O)Nc1cc(C)nn1C` [Example 128, N-(1,3-dimethylpyrazol-5-yl)-2-(2-(2-methoxyethoxy)ethoxy)acetamide] was below 20%; that for `CCCCCCCCCCNC(=O)Nc1ccccc1` [Example 48, 1-decyl-3-phenylurea] was below 20%; that for `CCCCCCCCCCCC(=O)N1CCCCC1CO` (stereo not drawn) [Example 37, 1-(2-(hydroxymethyl)piperidin-1-yl)dodecan-1-one] was above 50%.
As to `CCCCCCCCCC(=O)N[C@@H]1CCCC[C@H]1O` (relative stereo) [Example 34, trans-N-(2-hydroxycyclohexyl)decanamide], in assay [1] (class symbols), the inhibition at 100 µM is 20 to 50%.
Molecule `CCCCNC(=O)Nc1cc(C2CC2)nn1C` [Example 39, 1-butyl-3-(3-cyclopropyl-1-methylpyrazol-5-yl)urea] came in with an inhibition at 100 µM in assay [1] (class symbols) below 20%.
Still for that read-out and setting: the value for `CCCCCCCCCOCC(=O)N[C@H]1CCOC1=O` [Example 111, N-(2-nonyloxyacetyl)-L-homoserinelactone] was below 20%; that for `CCCCCCCCCCNC(=O)Nc1ccccc1C(F)(F)F` [Example 57, 1-decyl-3-(2-(trifluoromethyl)phenyl)urea] was 20 to 50%.
Still for that read-out and setting: to `CCCCCCCCCCCC(=O)N1CCCC(C(=O)NCC)C1` (stereo not drawn) [Example 133, 1-dodecanoyl-N-ethylpiperidine-3-carboxamide] belongs above 50%.
Same read-out and setting: the value for `CCN(CC)C(=O)C1CCCN(C(=O)CCCCCCCCCNS(C)(=O)=O)C1` (stereo not drawn) [Example 143, N,N-diethyl-1-(10-(methylsulfonamido)decanoyl)piperidine-3-carboxamide] was 20 to 50%; that for `CCCCCCCCCCCC(=O)Nc1ccc(F)cc1F` [Example 21, N-(2,4-difluorophenyl)dodecanamide] was below 20%.

Source of the values: US20090192192A1, “INHIBITORS OF BIOFILM FORMATION OF GRAM-POSITIVE AND GRAM-NEGATIVE BACTERIA” (priority 2007, published 2009).
